Test results reported in patent US20230285570A1, “THERAPEUTICALLY USEFUL CURE-PRO MOLECULES FOR E3 LIGASE MEDIATED DEGRADATION OF PROTEINS, AND METHODS OF MAKING AND USING THEM” (CORNELL UNIVERSITY, priority 2020, published 2023).
Entries after “also recorded” stand apart in the source; their conditions may differ.

Tests used:
Type in all cases: cell-based
caspase 3/7 [1] = experiment: Caspase-Glo 3/7 assay, Namalwa cells; settings: 24 h
Method: (§1) Caspase-glo® assay (Promega) was conducted following the manufacturer's recommendations. Cells were seeded at a density of 5000 cells/well in a white 96 well plates (Corning, #3917) in a total volume of 100 μl with respective monomers, combinations of BRD ligands together with E3 ligase ligands or vehicle control treatment. After a 24 h incubation, 100 μl of the […] substrate was added per well and luminescence was read on a Spectramax M5 (Molecular Devices).
Namalwa cells (5×10^4) were treated for 24 hours with the compounds solubilized in DMSO. FIG. 57 is a bar graph depiction of fold increase of apoptosis assessed via caspase 3/7 activity using the Caspase-Glo assay (Promega) described above.
(§2) Molm-13 (FIG. 76A) or Namalwa (FIG. 76B) cells (5×10^4) were treated for 24 hours with the compounds solubilized in DMSO in white 96 well plates (10 nM-10 μM solubilized in DMSO). FIG. 76 is a bar graph depiction of fold increase of apoptosis assessed via caspase 3/7 activity using the Caspase-Glo assay (Promega) described above.

caspase 3/7 [2] = experiment: Caspase-Glo 3/7 assay, Molm-13 cells
Method: as §1, §2

Molm-13 cells = experiment: CellTiter-Glo cell viability, Molm-13 cells
Method: CellTiter-Glo® 2.0 Cell Viability Assay (Promega) was carried out following the manufacturer's recommendations. Cells were seeded at a density of 1000 cells/well in a white 96 well plates (Corning, #3917) in a total volume of 100 μl with respective monomers, combinations of BRD ligands together with E3 ligase ligands or vehicle control treatment. After a 72 h incubation, 100 ul of the CellTiter-Glo® substrate was added per well and luminescence was read on a Spectramax M5 (Molecular Devices). Dose-response curves were generated using Graphpad Prism software.
Molm-13 cells (1×10^4) were treated for 24 (FIG. 77A) or 72 (FIG. 77B) hours were treated in white 96 well plates with the compounds (10 nM-10 μM solubilized in DMSO). After indicated times cell viability was assessed using the CellTiter-Glo® Luminescent Cell Viability Assay (Promega) and the signal detected on a SpectraMax M5 (Molecular Devices).

BRD4 [3] = molecular target: T1, BRD4 (Homo sapiens, UniProt O60885); experiment: CURE-PRO-mediated BRD4 degradation in MCF7 cells, Western blot; parameters: endogenous in cells
Method: Namalwa, Ramosm HeLa, MCF7, or HT29 HCT116 cells (2.5-3×10^6) were treated for 24 hours with the indicated compounds solubilized in DMSO. The cells were washed in ice-cold PBS and were then lysed in RIPA lysis buffer (150 mM NaCl, 5 mM EDTA, 1% NP-40, 0.5% sodium deoxycholate, 0.1% SDS, 50 mM Tris, pH 8.0.) with Roche protease inhibitor complete cocktail and phosphatase inhibitors (10 mM sodium fluoride, 10 mM sodium pyrophosphate, 1 mM sodium orthovanadate and 20 mM β-glycerophosphate). The total protein concentrations were determined by Bradford Protein Assay (Pierce) and 10-20 μg of protein was loaded onto 4-15% Tris-Glycine gradient gels (Biorad). After standard gel electrophoresis, the separated proteins were transferred to PVDF membrane by wet transfer. The immunoblots were then blocked for 1 hour in 5% skim milk in TBST or 5% BSA in TBST, according to manufacturer's instructions, before an overnight incubation at 4° C. with indicated antibodies and membranes. Membranes were then incubated with the appropriate horseradish peroxidase-conjugated secondary antibodies (1:5,000 dilution) for 1 h at room temperature and the bands were visualized using the Clarity Max Western ECL Substrate (Biorad) and the ChemiDoc Imaging System (Biorad). Signal was detected with ECL Western Blotting Substrate (Pierce) and X-ray film processed with a Konica SRX-101 X-ray film processor or captured by Bio-Rad's Chemidoc Imaging system.
MCF7 cells (3×10^6) were treated for 24 h with the compounds solubilized in DMSO. Compounds were added at 100 nM-10 μM. Standardized protein samples were electrophoresed and imaged as described in the Immunoblotting section above. FIG. 69 depicts the CURE-PRO-mediated BRD4 degradation for the BRD-E9 monomer and VHL ligands 8305 combined in a 1:1 ratio, and FIG. 70 depicts the CURE-PRO-mediated BRD4 degradation for the BRD-E20 monomer and 8305.
MCF7 cells (3×10^6) were treated for 24 h with the compounds solubilized in DMSO. Compounds were added at 1 μM-10 μM. Standardized protein samples were electrophoresed and imaged as described in the Immunoblotting section above. FIG. 71 depicts the CURE-PRO-mediated BRD4 degradation for the BRD-E50 monomer and VHL ligands 8305 and 8304 combined in a 1:1 ratio.

BRD4 [4] = molecular target: T1, BRD4; experiment: CURE-PRO-mediated BRD4 degradation in MCF7 cells, WES (ProteinSimple); parameters: endogenous in cells
Method: WES Simple analysis was performed on WES system (ProteinSimple-Biotechne) according to the manufacturer's instructions. Total protein concentrations of cell lysates were determined by the Pierce BCA kit (Thermo Fisher). 3 μL of 0.3 μg/μL of the protein lysate was loaded onto a 12- to 230-kDa WES assay plate (ProteinSimple) where 300 nL sample was withdrawn through a capillary, subjected to electrophoretic separation of proteins by size, and followed by the simultaneous, HRP-based detection of proteins using the Anti-Rabbit Detection Module (Proteinsimple: #DM-001). The electropherograms were checked then the automatic peak detection was manually corrected if it was required.
MCF7 cells (3×10^6) were treated for 4-24 hours continually (FIG. 72), or treated for 4 h, washed and incubated for a further 4-24 h with the compounds solubilized in DMSO. Compounds were added at 10 μM each. Cells were washed, lysed, and clarified by centrifugation. The total protein concentration was quantified by the BCA method (ThermoFisher Sciences). Standardized protein samples were electrophoresed and imaged as described in the WES Proteinsimple section above. FIG. 69 depicts the CURE-PRO-mediated BRD4 degradation for the BRD-E50 monomer, and VHL ligand, 8305.
MCF7 cells (3×10^6) were treated for 24 hours with the compounds solubilized in DMSO. CURE-PRO monomers were added at 10 μM each and the proteasomal inhibitors at 1 μM. Standardized protein samples were electrophoresed and imaged as described in the WES Proteinsimple section above. FIGS. 73 and 75 depicts the dependence of the proteasome for CURE-PRO-mediated BRD4 degradation.
MCF7 cells (3×10^6) were treated for 24 hours with the compounds solubilized in DMSO. CURE-PRO monomers were added at 10 μM. FIG. 74 depicts the CURE-PRO-mediated BRD4 degradation for the BRD-E50 monomer, and VHL ligand, 8305 combined in a 1:1 ratio after 24 h.

BRD4 [5] = molecular target: T1, BRD4; experiment: Summary of BRD4 degradation by CURE-PRO pairs, estimated from Western Blot or WES; parameters: endogenous in cells; settings: Table 3, aryl-boronic acid BRD4 ligand + 8305
Procedure, shortened: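 Degradation read-out from immunoblot with ECL, or WES capillary electrophoresis with HRP detection, of RIPA lysates. Cells (Namalwa, Ramos, HeLa, MCF7, HT29 or HCT116) were exposed to DMSO-solubilized compounds for 24 h; a check mark marks 30% to 70% or higher degradation.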

HCT116 cells = experiment: MTT toxicity of E3 ligase CURE-PRO monomers, HCT116 cells; settings: monomer alone, HCT116, 10 nM-30 μM, 24 h
Method: CURE-PRO ligands for the E3 ubiquitin ligases were assessed for toxicity by MTT assays as described above. CURE-PRO monomers (10 nM-30 μM) were solubilized in DMSO and added in triplicate to cells (1×10^5 cells/well) seeded in 96 well plates on the previous day. HCT116 (FIG. 105A), MCF7 (FIG. 105B), and HT29 cells (FIG. 105C) were treated with the CURE-PRO monomers for 24 h.

[6] = single monomer alone, MCF7, 10 μM

Compound | caspase 3/7 activation (caspase 3/7 [1]; 1:1 with VHL ligand 8305, Namalwa, 10 nM-10 μM) | caspase 3/7 activation (caspase 3/7 [1]; co-treated with VHL298, Namalwa) | caspase 3/7 activation (caspase 3/7 [2]; 1:1 with VHL ligand 8305, Molm-13, 24 h, 10 nM-10 μM) | caspase 3/7 activation (caspase 3/7 [2]; co-treated with VHL298, Molm-13, 24 h) | loss of cell viability versus monomers alone (Molm-13 cells; co-dosed 1:1 with VHL ligand 8305, Molm-13, 24 h and 72 h, 10 nM-10 μM) | cell viability (Molm-13 cells; co-treated with VHL298, Molm-13, 24 h and 72 h) | BRD4 degradation (BRD4 [3]; 1:1 with VHL ligand 8304, MCF7, 24 h, 1 μM-10 μM) | BRD4 degradation (BRD4 [3]; 1:1 with VHL ligand 8305, MCF7, 24 h, 100 nM-10 μM) | BRD4 degradation (BRD4 [4]; 1:1 with VHL ligand 8305, MCF7, 10 μM each, 4-24 h) | BRD4 degradation (BRD4 [4]; co-incubated with VHL ligand 8304, MCF7, 10 μM each) | BRD4 degradation (BRD4 [4]; [6]) | BRD4 degradation after VHL298 pre-incubation (BRD4 [4]; with 8305, 10 μM each, VHL298 preincubated at equimolar concentration, MCF7) | Degradation of BRD4, combination with VHL ligand 8305 (BRD4 [5]) | loss of viability (MTT) (HCT116 cells)
CCNC(=O)C[C@@H]1N=C(c2ccc(Cl)cc2)c2cc(B(O)O)ccc2-n2c(C)nnc21 [BRD-E50, ((4S)-6-(4-chlorophenyl)-4-(2-(ethylamino)-2-oxoethyl)-1-methyl-4H-benzo[f][1,2,4]triazolo[4,3-a][1,4]diazepin-8-yl)boronic acid] | demonstrates activation of caspase 3/7; also recorded: marked caspase activation | does not increase caspase activity | demonstrates activation of caspase 3/7; also recorded: marked caspase activation | does not increase caspase activity | marked loss in cell viability when compared to monomer treatment alone; also recorded: a greater loss of cell viability | decreases levels of cell viability to similar levels of BRD-E50 treatment alone | but not when VHL ligand 8304 is co-incubated; also recorded: no degradation is noted | there is degradation of BRD4; also recorded: marked BRD4 degradation | directs degradation of BRD4 as early as 4 h; also recorded: marked BRD4 degradation after 4 h | No degradation is noted | there is no degradation of BRD4 | attenuates CURE-PRO mediated BRD4 degradation; also recorded: No degradation is noted; also recorded: inhibited CURE-PRO mediated degradation; also recorded: inhibits the degradation of BRD4 | √ (A black check mark indicates efficacy of 30% to 70% or higher protein degradation) | 
Cc1ncsc1-c1ccc(CNC(=O)[C@@H]2C[C@@H](O)CN2C(=O)[C@@H](NC(=O)c2cccc(O)c2O)C(C)(C)C)cc1 [compound 8305, (2S,4R)-1-((S)-2-(2,3-dihydroxybenzamido)-3,3-dimethylbutanoyl)-4-hydroxy-N-(4-(4-methylthiazol-5-yl)benzyl)pyrrolidine-2-carboxamide] |  |  |  |  |  |  |  |  |  |  | there is no degradation of BRD4 |  |  | loss of viability only noted at higher concentrations (30 μM); also recorded: Toxicity at higher concentrations
